# Measurements published in patent US10111822B2, “External dermal composition for anti-ageing and method for producing the same” (Hayashibara Co., Ltd., priority 2012, dated 2018).
# Key:
# [1] = test system: Involucrin; assay: Expression of proliferation marker protein involucrin in NHEK cells (Western); type: cell-based, human; settings: 5 days, control regarded as 50%
# Protocol: Normal human epidermal keratinocytes from neonatal foreskin (NHEK cells) were prepared into 2.5×10^5 cells/mL with EpiLife medium, inoculated to 12-well plates in a volume of 1 mL/well, and cultured at 37° C. for one day under a 5% v/v CO2 condition. Thereafter, each supernatant was removed, and a medium, to which ascorbic acid 2-glucoside had been added to give a final concentration of 300 or 600 μM, was added to the resulting cells in a volume of 1 mL/well, followed by culturing the cells at 37° C. for two days under a 5% v/v CO2 condition. Another cell culture system, which had been similarly cultured in a medium free of ascorbic acid 2-glucoside, was provided as a control. The cells cultured with ascorbic acid 2-glucoside were further added with a medium supplemented with the same concentration of sodium salt of ascorbic acid 2-glucoside as that in the above medium in a volume of 1 mL/well, and cultured for another three days under the same conditions. […] Each of the resulting extract was centrifuged to collect a supernatant, and a part of which was subjected to protein quantification. […]
# [2] = test system: cornified envelope (CE); assay: Production of cornified envelope (CE) in NHEK cells; type: cell-based, human; settings: 5 days, control 0.63 ± 0.07
# Protocol: The following experiment was conducted to examine the effect of ascorbic acid 2-glucoside on the production of CE in a keratinous layer. As a model for typical normal human epidermal cells, normal human epidermal keratinocytes from neonatal foreskin, commercialized by Kurabo Industries Ltd., Osaka, Japan, and abbreviated as “NHEK cells”, hereinafter, were suspended in EpiLife medium (pH 7.4), commercialized by Invitrogen Corporation, Calif., USA, and called “EpiLife medium”, hereinafter, inoculated to 12-well microplates at a cell density of 1×10^5 cells/well, and cultured under the conditions of 37° C. and 5% v/v CO2 overnight. Thereafter, “AA2G”, a product name of a particulate composition containing anhydrous crystalline ascorbic acid 2-glucoside, commercialized by Hayashibara Co., Ltd., Okayama, Japan, was added to each well to give a final concentration of 0.5 or 1 mM, or, as a positive control, CaCl2 was added to each well to give a final concentration of 1 mM; and the cells in each well were cultured at 37° C. for five days while replacing the medium in each well with a fresh preparation of EpiLife medium having the above-identified concentration of ascorbic acid 2-glucoside or CaCl2. Assay for intracellular CE content was carried out in accordance with Tatsuya Hasegawa et al., “Lipids”, Vol. 46, pp. 529 to 535, 2011. After completion of the culture, the culture supernatant in each well was immediately removed, followed by detaching and extracting the cells adhered to the wall of each well by means of pipetting with phosphate buffered saline (PBS, pH 7.4) containing 2% w/v sodium dodecyl sulfate (SDS), and collecting insoluble fractions by centrifugation at 15,000 rpm for 10 min. […] The measured values were regarded as CE production levels. […]
smiles,measurement,setting,value
"O=C1O[C@H]([C@@H](O)CO)C(O)=C1O[C@H]1O[C@H](CO)[C@@H](O)[C@H](O)[C@H]1O [ascorbic acid 2-glucoside, 2-O-α-D-glucosyl-L-ascorbic acid]","Relative expression level, Involucrin","[1]; 300 μM, calibrated with α-Tubulin",74%
same,"Relative expression level, Involucrin",[1]; 600 μM,84%
same,OD310nm Value (CE Production level),[2]; 0.5 mM,0.78 ± 0.05
same,OD310nm Value (CE Production level),[2]; 1 mM,1.04 ± 0.11
